The text below walks through data of US7279493B2, “Therapeutic agents useful for treating pain” (Euro-Celtique S.A., priority 2002, dated 2007).

The target of test [1] is T1, human VR1 (Homo sapiens, UniProt Q8NER1).
T1 construct: expressed in transfected cells
As to the kind of experiment: VR1 capsaicin-based assay in HEK293-EcR cells (FLIPR, Fluo-4). In kind it is cell-based. The protocol:
Human VR1 cloning. Human spinal cord RNA (commercially available from Clontech, Palo Alto, Calif.) was used. Reverse transcription was conducted on 1.0 μg total RNA using Thermoscript Reverse Transcriptase (commercially available from Invitrogen, Carlsbad, Calif.) and oligo dT primers as detailed in its product description. Reverse transcription reactions were incubated at 55° C. for 1 h, heat-inactivated at 85° C. for 5 min, and RNase H-treated at 37° C. for 20 min. Human VR1 cDNA sequence was obtained by comparison of the human genomic sequence, prior to annotation, to the published rat sequence. Intron sequences were removed and flanking exonic sequences were joined to generate the hypothetical human cDNA. […] On the day of assay, cells were loaded with Fluo-4 (a calcium-sensitive dye that is commercially available from Molecular Probes, Eugene, Oreg.) and CAP-mediated calcium influx was measured using a Fluorometric Imaging Plate Reader (“FLIPR”) (commercially available from Molecular Devices Corp., Sunnyvale, Calif.) as described below. […]

The target in test [2] is T1, human VR1. Briefly: VR1 pH-based assay in HEK293-EcR cells (FLIPR, Fluo-4). Type of test: cell-based. The following applies: activation by agonist buffer giving pH 5.5, human VR1 in PonA-induced HEK293-EcR cells, 50 pM to 3 μM, n+3. The protocol:
Human VR1 cloning. Human spinal cord RNA (commercially available from Clontech, Palo Alto, Calif.) was used. Reverse transcription was conducted on 1.0 μg total RNA using Thermoscript Reverse Transcriptase (commercially available from Invitrogen, Carlsbad, Calif.) and oligo dT primers as detailed in its product description. Reverse transcription reactions were incubated at 55° C. for 1 h, heat-inactivated at 85° C. for 5 min, and RNase H-treated at 37° C. for 20 min. Human VR1 cDNA sequence was obtained by comparison of the human genomic sequence, prior to annotation, to the published rat sequence. Intron sequences were removed and flanking exonic sequences were joined to generate the hypothetical human cDNA. Primers flanking the coding region of human VR1 were designed as follows: forward primer, [NT]; and reverse primer, [NT] of VR1 was performed on one tenth of the Reverse transcription reaction mixture using Expand Long Template Polymerase and Expand Buffer 2 in a final volume of 50 μL according to the manufacturer's instructions (Roche Applied Sciences, Indianapolis, Ind.). After denaturation at 94° C. for 2 min PCR amplification was performed for 25 cycles at 94° C. for 15 sec, 58° C. for 30 sec, and 68° C. for 3 min followed by a final incubation at 72° C. for 7 min to complete the amplification. […]

T1 sequence (Q8NER1 whole entry): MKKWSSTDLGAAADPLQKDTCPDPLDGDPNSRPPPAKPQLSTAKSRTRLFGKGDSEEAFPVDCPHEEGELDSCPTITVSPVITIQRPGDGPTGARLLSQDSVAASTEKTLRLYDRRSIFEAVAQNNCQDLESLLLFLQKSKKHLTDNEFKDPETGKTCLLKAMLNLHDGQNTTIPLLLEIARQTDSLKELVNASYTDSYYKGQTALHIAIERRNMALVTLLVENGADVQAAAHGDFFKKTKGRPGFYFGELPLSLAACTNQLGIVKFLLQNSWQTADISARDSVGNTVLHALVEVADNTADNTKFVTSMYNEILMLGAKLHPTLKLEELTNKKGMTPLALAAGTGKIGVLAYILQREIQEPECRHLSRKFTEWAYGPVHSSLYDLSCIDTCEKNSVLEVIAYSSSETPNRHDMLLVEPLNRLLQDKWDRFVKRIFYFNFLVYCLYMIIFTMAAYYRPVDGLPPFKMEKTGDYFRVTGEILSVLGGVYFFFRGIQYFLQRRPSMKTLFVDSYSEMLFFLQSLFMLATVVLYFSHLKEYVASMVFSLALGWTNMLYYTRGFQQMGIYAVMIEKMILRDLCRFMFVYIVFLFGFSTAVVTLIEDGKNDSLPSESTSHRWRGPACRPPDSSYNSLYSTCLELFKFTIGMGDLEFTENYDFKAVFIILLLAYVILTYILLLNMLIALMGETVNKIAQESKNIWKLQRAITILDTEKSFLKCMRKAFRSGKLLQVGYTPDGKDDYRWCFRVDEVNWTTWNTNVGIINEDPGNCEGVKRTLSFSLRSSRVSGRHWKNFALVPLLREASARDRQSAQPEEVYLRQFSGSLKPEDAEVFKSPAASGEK

By IC50 is commonly meant the concentration that inhibits the measured activity by half. High values mean a need for much substance, low ones inhibition by little substance. Regarding `C[C@@H]1CN(c2ncccc2Cl)CCN1/C(=N\C#N)NCCC1=CCCCC1` [Compound DEY], the IC50 against human VR1 [1] (capsaicin-based assay, human VR1 activated by capsaicin (400 nM) in PonA-induced HEK293-EcR cells, 50 pM to 3 μM, n+3) came to 59.4 ± 13.1 nM; on human VR1 [2], 197 ± 39.8 nM. Further, the “binding to and modulation of human VR1 (conclusion in words)” value on human VR1 [1] (conclusion from the pH-based assay and the capsaicin-based assay) is “binds to and modulates the activity of human VR1”.
